Source: publication PMC11955804, “Histidine-rich enantiomeric peptide coacervates enhance antigen sequestration and presentation to T cells” (Chemical Science, 2025)

Assays:
[1] = Encapsulation efficiency measurement; type: physicochemical; conditions: 1 mM peptide, 1 µM eGFP in PBS; centrifuged 15,000 × g 10 min; fluorescence of supernatant (λex 395 nm, λem 510 nm)
Method: Encapsulation efficiency measurements […]
powders to a final peptide concentration of 1 mM. Cargo concentrations in the stock solutions […]
nm and λem: 519 nm). For small molecule dyes, similar methods were used. The encapsulation efficiency was determined as reported previously 12.
Cellular uptake and antigen presentation assays […]
to addition of OVA-loaded coacervates. Final OVA concentration was 1 µg/mL for time- […]
37°C and complete RPMI media served as controls. Soluble OVA and PBS treated cells were used as controls for antigen delivery.

HEK293T cells = assay: eGFP plasmid DNA transfection; type: cell-based; conditions: coacervates loaded with eGFP DNA plasmid 2.5 μg/mL; qualitative microscopy after 96 h
Method: findings were not OVA-specific.
Reserve University) 14,15.
Cytotoxicity and transfection assays
Untreated cells or ethanol treated cells served as controls. Cytotoxicity of all inhibitors was evaluated similarly. For transfection studies, […]
Biosystems, Catalog number: 4060; 2.5 μg/mL). Cells treated with the naked plasmid or […]
complexed with lipofectamine 2000 (3.2 µL) served as controls. GFP expression was assessed qualitatively after 96 h using a Lionheart FX automated microscope (BioTek Instruments, Inc.).
We employed TrueCut Cas9 protein for the knockout of CD55 gene using CRISPR technology, aided with chiral (GHGXY)4 peptide coacervates. The transfection of the Cas9 RNPs (protein + gRNA) was done according to manufacturer’s protocol (Invitrogen). Briefly, A549 cells were cultured in complete DMEM media (supplemented with 10% FBS and 5% Pen Strep) in T-75 flask till full confluency. Cells were then plated at a concentration of 2×10^4 cells/mL in 24 well […]
plates in DMEM media for 24 h. […]
confluent. For positive control, we mixed the TrueCutTM Cas9 protein/sgRNA in Opti-MEM media (17.8 μL) at a concentration of 12.50 μg (75 pmol; Stock 0.5 mg/mL) and 2.4 μg (75 pmol; Stock 1 nmol) for protein and sgRNA respectively, containing 50 μL LipofectamineTM Cas 9 PlusTM reagent (Total Volume: 100 μL) in a RNAse -free microcentrifuge tube. […]

hiPSC-CMs = assay: Confocal microscopy of cellular uptake in hiPSC-CMs; type: cell-based, human; conditions: for interaction with the cell membrane of hiPSC-CMs: confocal microscopy; for cellular uptake / localization in hiPSC-CMs: eGFP loaded coacervates (100 nM eGFP), 30 min, 37 °C, confocal
Method: Stem cell-derived cardiomyocytes and confocal microscopy
Wild type hiPSCs (WT iPSC 11) were received from the Genome Engineering and Stem Cell Center at Washington University School of Medicine. hiPSCs were cultured in mTeSR Plus […]
medium ([…] Technologies, USA) on 6-well plates coated with Matrigel (1:100, Corning) and grown at 37 °C with 5% CO2. Cells were grown to 80–90% confluency and then passaged as clusters using Versene (Thermo Scientific, USA) into 6-well plates for hiPSC maintenance and […]
into 24-well plates for hiPSC differentiation. Once hiPSCs reached 90% confluence, they were differentiated into cardiomyocytes using small-molecule manipulation of Wnt signaling 10. Non-cardiomyocytes were removed via lactate purification on days 20 and 22 before replating singularized hiPSC cardiomyocytes (hiPSC-CMs) at 40,000 cells per 35-mm glass-bottom dish. hiPSC-CMs were treated with enantiomeric leucine or valine coacervates loaded with eGFP protein (Novus Biologicals, Catalog number: NBP2-34923; 50 μL, final concentration of 100 nM eGFP) for 30 min at 37°C. Samples were fixed with 2% paraformaldehyde (PFA) and three PBS washes (10 min at RT). The cell membrane was stained with wheat germ agglutinin (WGA; Fisher Scientific, Catalog number: W32466; 0.25 μL/mL) conjugated to Alexa Fluor 647 (10 min at RT), followed by three PBS washes (5 minutes at RT). Confocal micrographs of singular hiPSC-CMs were acquired using a Leica Sp8 Lightning single-photon confocal microscope […]
numerical aperture oil immersion objective, two HyD GaAsP detectors, and two high-sensitivity photomultiplier tube detectors. Images were collected as z-stacks (presented as top or bottom view, and single plane) and by Nyquist sampling (or greater) as previously described 11.
All animal experiments were conducted under approved protocols by the Institutional Animal Care and Use Committee (IACUC) at Washington University in St Louis. Femoral and tibial bone marrow from C57BL/6 mice were collected and RBCs lysed using ACK buffer. The cells were plated at 5×10^6 cells per petri dish (150 mm) and differentiated for 7–9 days in complete RPMI-1640 medium (containing 10% heat-inactivated FBS), 55 µM β-mercaptoethanol, 1 mM sodium pyruvate, 10 mM HEPES, 1× MEM non-essential amino acids, 20 ng/mL GM-CSF, 10

Row | Substance | eGFP loading efficiency [1] | eGFP expression after plasmid delivery (HEK293T cells) | interaction with the cell membrane of hiPSC-CMs (hiPSC-CMs) | cellular uptake / localization in hiPSC-CMs (hiPSC-CMs)
1 | (GHGLY)4 [GL 20] | ~90% | robust eGFP expression | interacted with and traversed the cell membrane | confirmed their localization within the cells
2 | (GHGVY)4 [GV 20] | ~75% | Poor eGFP expression | this behavior was not observed | confirmed their localization within the cells
